Laboratory results as given in patent US20240083839A1, “COMPOSITIONS AND METHODS FOR TREATING NEURODEGENERATIVE DISEASES AND DISORDERS” (The Regents of the University of California, priority 2020, published 2024).
pEC50, pIC50: −log10 of the molar value. “And” between values parts separate entries of the source, which are not always exact repeats. Identical values can stand only once. Counter-ions that a name gives are not always drawn.

Columns and labels:
[1] = system: SirT1 levels in SH-SY5Y cells; assay: SirT1 in SH-SY5Y cells transiently transfected with ApoE4; assay type: cell-based, human
PRMT8 = PRMT8 (Homo sapiens, UniProt Q9NR22); assay: Cell-free PRMT enzyme activity assay, PRMT8; assay type: biochemical; settings: for PRMT8 inhibition: A03 at 5 μM
Sequence of PRMT8 (Q9NR22 whole entry, species assumed): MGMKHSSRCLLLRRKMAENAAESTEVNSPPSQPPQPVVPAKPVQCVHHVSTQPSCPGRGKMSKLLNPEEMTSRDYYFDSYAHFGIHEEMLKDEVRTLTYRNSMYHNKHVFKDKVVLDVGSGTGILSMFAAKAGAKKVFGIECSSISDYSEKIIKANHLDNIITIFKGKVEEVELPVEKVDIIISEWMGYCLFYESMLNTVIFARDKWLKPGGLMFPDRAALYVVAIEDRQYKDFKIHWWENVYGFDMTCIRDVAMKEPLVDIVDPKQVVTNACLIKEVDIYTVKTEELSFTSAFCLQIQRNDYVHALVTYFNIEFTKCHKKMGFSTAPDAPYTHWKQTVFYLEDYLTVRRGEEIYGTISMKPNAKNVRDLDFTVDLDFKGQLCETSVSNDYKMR
Excerpt: (§1) Due both the sequence homology and functional similarity of PRMT family members, in follow-up experiments PRMT 1, 4, and 8 inhibitors as well as assays for inhibition by those PRMTs were used. […] This profile may be due to its binding to an allosteric site on the PRMT8 enzyme and needs further kinetic analysis. […] The mode & inhibition kinetics to be investigated in the renewal grant.
Testing of additional A03 analogs are ongoing. For affinity purification, DDL215 that was used through clicking to beads. […] An initial correlation between cell-free PRMT8 inhibition and neuronal SirT1 enhancement (in cells) at 5 μM was seen (FIG. 10B).

PRMT4 = target: T1, PRMT4 (Homo sapiens, UniProt Q86X55); assay: Cell-free PRMT enzyme activity assay, PRMT4; assay type: biochemical; settings: A03 at 5 μM
T1 sequence (Q86X55 1-608): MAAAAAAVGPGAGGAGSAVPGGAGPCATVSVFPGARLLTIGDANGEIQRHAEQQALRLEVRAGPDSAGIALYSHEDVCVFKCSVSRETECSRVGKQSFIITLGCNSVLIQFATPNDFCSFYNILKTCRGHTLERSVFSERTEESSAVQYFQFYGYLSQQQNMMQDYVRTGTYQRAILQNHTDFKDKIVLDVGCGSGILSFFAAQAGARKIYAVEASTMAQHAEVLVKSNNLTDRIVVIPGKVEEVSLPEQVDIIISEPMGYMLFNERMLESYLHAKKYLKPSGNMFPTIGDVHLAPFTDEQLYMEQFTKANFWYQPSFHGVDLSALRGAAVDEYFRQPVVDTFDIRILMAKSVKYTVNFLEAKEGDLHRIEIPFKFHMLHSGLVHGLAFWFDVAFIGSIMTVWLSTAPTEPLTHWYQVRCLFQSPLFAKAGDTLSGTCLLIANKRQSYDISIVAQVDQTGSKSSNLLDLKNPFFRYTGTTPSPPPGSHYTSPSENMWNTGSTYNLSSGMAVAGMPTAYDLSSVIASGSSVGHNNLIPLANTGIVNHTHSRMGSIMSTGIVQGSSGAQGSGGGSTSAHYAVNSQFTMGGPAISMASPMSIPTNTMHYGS
Excerpt: as §1

[2] = system: ApoE4 and RNA polymerase II binding to the SirT1 promoter; assay: ChIP and real time PCR of SirT1 promoter binding in N2a-E4 cells; assay type: cell-based, mouse; settings: 6 hour treatment (A03 50 μM), versus DMSO
Method: Cells were then fixed with formaldehyde, lysed with SDS buffer, and sonicated using a temperature-controlled Epishear sonication platform at −20° C. to obtain DNA fragments between 200-1000 bp. An EZ-ChIP kit (EMD Millipore) was then used for chromatin immunoprecipitation using anti-ApoE4 mAb (Novus Biologicals) and anti-RNA Polymerase II mAb (Millipore) antibodies. After ChIP crosslinks were reversed and purified ChIP DNA was then analyzed by real time quantitative PCR using SYBR green master mix (Thermo) in a CFX Connect Real-Time PCR Detection System (Bio-Rad) using primers to amplify the ApoE4 binding site in the mouse SirT1 promoter: 5′[…]3′ and 5′[…]3′ (amplicon size of 125 bp). The Signals from each sample were normalized with signal of the input followed by the delta-delta-Ct method and fold change calculated with respect to the vehicle (DMSO).

[3] = system: SirT1 levels in N2a-E4 cells; assay: SirT1 levels by AlphaLISA in ApoE4-transfected N2a cells; assay type: cell-based, murine
Method: Prompted by the emerging importance of the associations between ApoE4 and the expression/protein levels of SirT1, high-throughput screening (HTS) of the UCLA compound library was performed using AlphaLISA to detect SirT1 levels in murine neuroblastoma cells stably transfected with ApoE4 (E4-N2a) to identify SirT1 enhancers. […] In the in vivo study, mice were treated orally at 40 mkd (20 mg/kg BID) for 56 days and underwent assessment of cognition in the Novel Object Recognition (NOR) testing paradigm. […] The performance of A03-treated E4-AD mice (FIG. 5A) improved to level of non-transgenic vehicle-treated mice.

PRMT1 = PRMT1 (Homo sapiens, UniProt Q99873); assay: Cell-free PRMT enzyme activity assay, PRMT1; assay type: biochemical; settings: A03 at 5 μM
Sequence of PRMT1 (Q99873 whole entry, species assumed): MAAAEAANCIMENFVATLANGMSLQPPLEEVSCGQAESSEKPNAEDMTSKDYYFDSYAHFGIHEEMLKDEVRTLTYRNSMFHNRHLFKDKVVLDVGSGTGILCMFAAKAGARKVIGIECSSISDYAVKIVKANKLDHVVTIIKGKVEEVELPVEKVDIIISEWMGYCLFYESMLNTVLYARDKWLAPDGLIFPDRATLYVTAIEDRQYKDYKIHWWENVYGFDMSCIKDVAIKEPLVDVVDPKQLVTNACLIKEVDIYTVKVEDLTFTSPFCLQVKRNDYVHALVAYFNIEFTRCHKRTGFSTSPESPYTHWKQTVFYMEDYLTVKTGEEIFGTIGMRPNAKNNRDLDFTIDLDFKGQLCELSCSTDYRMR
Excerpt: Due both the sequence homology and functional similarity of PRMT family members, in follow-up experiments PRMT 1, 4, and 8 inhibitors as well as assays for inhibition by those PRMTs were used. […] The mode & inhibition kinetics to be investigated in the renewal grant.

SirT1 mRNA = SirT1 mRNA level in N2a-E4 cells; assay type: cell-based, mouse; settings: 10 hour time point
[4] = system: PRMT8 protein levels in E4-N2a cells; assay: Immunoblot of PRMT8 protein levels in E4-N2a cells; assay type: cell-based, murine; settings: 10 μM
Excerpt: as §1

E4-AD mice = assay: Oral treatment of ApoE4-expressing AD model mice (NOR, brain SirT1); assay type: in vivo, mouse; settings: ApoE4:5×FAD-TR transgenic mice
Method: Prompted by the emerging importance of the associations between ApoE4 and the expression/protein levels of SirT1, high-throughput screening (HTS) of the UCLA compound library was performed using AlphaLISA to detect SirT1 levels in murine neuroblastoma cells stably transfected with ApoE4 (E4-N2a) to identify SirT1 enhancers. […] In the in vivo study, mice were treated orally at 40 mkd (20 mg/kg BID) for 56 days and underwent assessment of cognition in the Novel Object Recognition (NOR) testing paradigm.

PAMPA (PAMPA)	Compound	SirT1 SOμM [3]	SirT1 SμM [3]	other results
–	CC(N)C(=O)OC(C)(C)Cc1ccncc1 (stereo not drawn) [MP48]	–	–	ApoE4 binding to the SirT1 promoter [2]: decreased ApoE4; RNA polymerase binding to the SirT1 promoter [2]: increased RNA polymerase binding; SirT1 mRNA levels in the brain (E4-AD mice): increase SirT1 mRNA levels
2.25 and 2.38	C[C@H](N)C(=O)NC(C)(Cc1ccc(F)cc1)Cc1ccc(F)cc1 [MP-51, (S)-2-amino-N-(1,3-bis(4-fluorophenyl)-2-methylpropan-2-yl)propanamide]	C (C = 100% increase versus control)	A (A >20%)	–
1	C[C@@H](N)C(=O)NC(C)(Cc1ccc(F)cc1)Cc1ccc(F)cc1 [MP-52, (R)-2-amino-N-(1,3-bis(4-fluorophenyl)-2-methylpropan-2-yl)propanamide]	A, A (A >20%)	A, A (A >20%)	–
0.49	CC(=O)c1ccc(CC(C)(C)NC(=O)[C@H](C)N)cc1 [MP-53, (S)—N-(1-(4-acetylphenyl)-2-methylpropan-2-yl)-2-aminopropanamide]	B (B >50%)	A (A >20%)	–
5.06	C[C@H](N)C(=O)Nc1ccc2ccccc2c1 [MP-55, (S)-2-amino-N-(naphthalen-2-yl)propanamide]	B (B >50%)	A (A >20%)	–
1.81	C[C@H](N)C(=O)NC1Cc2ccccc2C1 [MP-56, (S)-2-amino-N-(2,3-dihydro-1H-inden-2-yl)propanamide]	C (C = 100% increase versus control)	A (A >20%)	–
1.6(2)	C[C@H](N)C(=O)Nc1ccccc1-c1ccc(F)cc1 [MP-57, (S)-2-amino-N-(4′-fluoro-[1,1′-biphenyl]-2-yl)propanamide]	B (B >50%)	A (A >20%)	–
0.29	CC(C)(Cc1ccc(Br)cc1)NC(=O)[C@@H](N)CCC(=O)O [MP-61, (S)-4-amino-5-((1-(4-bromophenyl)-2-methylpropan-2-yl)amino)-5-oxopentanoic acid]	B (B >50%)	A (A >20%)	–
1.67	C#CC[C@H](N)C(=O)NC(C)(C)Cc1ccc(Br)cc1 [MP-62, (S)-2-amino-N-(1-(4-bromophenyl)-2-methylpropan-2-yl)pent-4-ynamide]	B (B >50%)	A (A >20%)	–
0.59	COC(=O)N[C@H]1Cc2ccccc2CNC1=O [MP-70]	A, A (A >20%)	A, A (A >20%)	–
11.07(2)	O=C1NCN[C@H]1Cc1ccc(Cl)cc1 [MP-72, (S)-5-(4-chlorobenzyl)imidazolidin-4-one]	A, A (A >20%)	A, A (A >20%)	–
0.68	O=C(N[C@H]1Cc2ccccc2CNC1=O)OCc1ccccc1 [MP-73, (S)-benzyl (3-oxo-2,3,4,5-tetrahydro-1H-benzo[c]azepin-4-yl)carbamate]	a, a (a <250%)	a, a (a <250%)	–
1.55	O=C(N[C@H]1Cc2ccccc2CNC1=O)OCC1c2ccccc2-c2ccccc21 [MP-74, (S)-(9H-fluoren-9-yl)methyl (3-oxo-2,3,4,5-tetrahydro-1H-benzo[c]azepin-4-yl)carbamate]	a, a (a <250%)	a, a (a <250%)	–
2.71	CC(N)C(=O)OC(C)(C)Cc1ccc(C(F)(F)F)cc1.Cl (stereo not drawn) [MP-76, 2-methyl-1-(4-(trifluoromethyl)phenyl)propan-2-yl 2-aminopropanoate hydrochloride]	A, A (A >20%)	A, A (A >20%)	–
1.61	C[C@H](NC(=O)OC(C)(C)C)C(=O)NC(C)(C)Cc1ccc(C(F)(F)F)cc1 [MP-77, (S)-tert-butyl (1-((2-methyl-1-(4-(trifluoromethyl)phenyl)propan-2-yl)amino)-1-oxopropan-2-yl)carbamate]	a, a (a <250%)	a, a (a <250%)	–
1.93	C[C@H](N)C(=O)NC(C)(C)Cc1ccc(C(F)(F)F)cc1 [MP-78, (S)-2-amino-N-(2-methyl-1-(4-(trifluoromethyl)phenyl)propan-2-yl)propanamide hydrochloride]	B (B >50%)	A (A >20%)	–
1.74	CC(C)(N)C(=O)NCCc1ccc(Cl)cc1 [MP-79, 2-amino-N-(4-chlorophenethyl)-2-methylpropanamide]	B (B >50%)	A (A >20%)	–
–	CC(C)Oc1ccc(-c2c[nH]cc2CN(C)CCN)cc1 [MS23]	–	–	PRMT8 inhibition (PRMT8; cell-free assay): inhibits all 3 enzymes; PRMT4 inhibition (PRMT4): inhibits all 3 enzymes

Compound	PAMPA (PAMPA)	SirT1 SOμM [3]	SirT1 SμM [3]	other results
CC(N)C(=O)OC(C)(C)Cc1ccc(Cl)cc1 (stereo not drawn) [A03, alaproclate]	3.9 and 4.04	C (C = 100% increase versus control)	A (A >20%)	SirT1 increase [1]: SirT1 increases similar to those seen in the E4-N2a cells; PRMT8 inhibition, ranking (PRMT8; cell-free assay, 0.25 μM): greatest inhibition; PRMT8 inhibition (PRMT8; cell-free assay): inhibit PRMT8; pIC50 (PRMT8; cell-free assay, read-out: PRMT8 inhibition IC50): ~6.90; dose at maximum of PRMT8 inhibition dose response (PRMT8; hormetic profile, plateau up to 10 μM): 0.25 µM; PRMT4 inhibition (PRMT4): not PRMT1 or 4; ApoE4 binding to the SirT1 promoter [2]: pronounced decrease; RNA polymerase binding to the SirT1 promoter [2]: increased binding; pEC50 ([3]; Mus musculus, E4-N2a cells, AlphaLISA, read-out: SirT1 increase EC50): ~5.64; SirT1 increase ([3]; N2a-E4 cells): increased SirT1 in a dose dependent fashion; PRMT1 inhibition (PRMT1): not PRMT1 or 4; SirT1 mRNA level higher than DMSO control (SirT1 mRNA): 12%; PRMT8 protein levels [4]: does not alter PRMT8 protein levels
C[C@H](N)C(=O)NC(C)(C)Cc1ccc(CC(F)(F)F)cc1 [MP-58, (S)-2-amino-N-(2-methyl-1-(4-(2,2,2-trifluoroethyl)phenyl)propan-2-yl)propanamide]	1.28	C (C = 100% increase versus control)	A (A >20%)	–
C#Cc1ccc(CC(C)(C)NC(=O)[C@H](C)N)cc1 [MP-59, (S)-2-amino-N-(1-(4-ethynylphenyl)-2-methylpropan-2-yl)propanamide]	2.49	A, A (A >20%)	A, A (A >20%)	–
